Species on record: Rattus norvegicus
Test: Open TG-GATES - Regimen: Single
Assay type: toxicity, organism-based, Sprague-Dawley
Set-up: regimen Single, gender Male, age 6 weeks
Settings: in vivo, po, route gavage; for APTT / Bas / Eos / Fbg / Hb / Ht / Lym / MCH / MCHC / MCV / Mono / Neu / PT / Plat / RBC / Ret / WBC: tissue Blood; for KIDNEY_L / KIDNEY_R / KIDNEY_TOTAL: tissue Kidney; for LIVER: tissue Liver
[1] = 0 mg/kg, 24 h, tissue Plasma, dose level Control
[2] = 300 mg/kg, 3 h, tissue Plasma, dose level Low
[3] = 300 mg/kg, 6 h, tissue Plasma, dose level Low

Work on `O=C(O)c1ccccc1Nc1ccccc1` [FENAMIC ACID] yielded an RALB [1] of 2.7 g/dL, a TBIL [1] of 0.034 mg/dL and a TC [1] of 77.6 mg/dL. For the same compound, the TG [1] was 82.6 mg/dL, the TP [1] was 5.6 g/dL and the gamma-GTP [1] was 1 IU/L. It also gave a TERMINAL_BW (300 mg/kg, 3 h, dose level Low) of 209.1 g, an APTT (300 mg/kg, 3 h, dose level Low) of 16.8 s and a Bas (300 mg/kg, 3 h, dose level Low) of 0.8%. It also gave an Eos (300 mg/kg, 3 h, dose level Low) of 0.8%, a Fbg (300 mg/kg, 3 h, dose level Low) of 249.8 mg/dL and a Hb (300 mg/kg, 3 h, dose level Low) of 13.2 g/dL. The Ht (300 mg/kg, 3 h, dose level Low) was 40%, the Lym (300 mg/kg, 3 h, dose level Low) was 79.8% and the MCH (300 mg/kg, 3 h, dose level Low) was 20.5 pg. It also gave an MCHC (300 mg/kg, 3 h, dose level Low) of 33%, an MCV (300 mg/kg, 3 h, dose level Low) of 62.3 fL and a Mono (300 mg/kg, 3 h, dose level Low) of 2.2%. It also gave a Neu (300 mg/kg, 3 h, dose level Low) of 16.2%, a PT (300 mg/kg, 3 h, dose level Low) of 14.3 s and a Plat (300 mg/kg, 3 h, dose level Low) of 113.6 x10_4/uL. It also gave an RBC (300 mg/kg, 3 h, dose level Low) of 642.2 x10_4/ul, a Ret (300 mg/kg, 3 h, dose level Low) of 8.8% and a WBC (300 mg/kg, 3 h, dose level Low) of 95.7 x10_2/uL. The KIDNEY_L (300 mg/kg, 3 h, dose level Low) was 1 g, the KIDNEY_R (300 mg/kg, 3 h, dose level Low) was 0.9 g and the KIDNEY_TOTAL (300 mg/kg, 3 h, dose level Low) was 1.9 g. For the same compound, the LIVER (300 mg/kg, 3 h, dose level Low) was 8.2 g, the A/G [2] was 0.9 and the ALP [2] was 1661.4 IU/L. It also gave an ALT [2] of 38.2 IU/L, an AST [2] of 73.4 IU/L and a BUN [2] of 12.4 mg/dL. For the same compound, the CRE [2] was 0.2 mg/dL, the Ca [2] was 11.1 mg/dL and the Cl [2] was 107.2 meq/L. It also gave a GLC [2] of 187.4 mg/dL, an IP [2] of 9.6 mg/dL and a K [2] of 4.4 meq/L. The LDH [2] was 78.4 IU/L, the Na [2] was 144.4 meq/L and the PL [2] was 124.6 mg/dL. The RALB [2] was 2.5 g/dL, the TC [2] was 67.4 mg/dL and the TG [2] was 93.4 mg/dL. The TP [2] was 5.4 g/dL, the gamma-GTP [2] was 1 IU/L and the TERMINAL_BW (300 mg/kg, 6 h, dose level Low) was 201.5 g. For the same compound, the APTT (300 mg/kg, 6 h, dose level Low) was 16.7 s, the Bas (300 mg/kg, 6 h, dose level Low) was 0.6% and the Eos (300 mg/kg, 6 h, dose level Low) was 0.8%. For the same compound, the Fbg (300 mg/kg, 6 h, dose level Low) was 248.8 mg/dL, the Hb (300 mg/kg, 6 h, dose level Low) was 13.5 g/dL and the Ht (300 mg/kg, 6 h, dose level Low) was 40.6%. It also gave a Lym (300 mg/kg, 6 h, dose level Low) of 74.6%, an MCH (300 mg/kg, 6 h, dose level Low) of 20.9 pg and an MCHC (300 mg/kg, 6 h, dose level Low) of 33.3%. For the same compound, the MCV (300 mg/kg, 6 h, dose level Low) was 62.9 fL, the Mono (300 mg/kg, 6 h, dose level Low) was 2.4% and the Neu (300 mg/kg, 6 h, dose level Low) was 21.4%. The PT (300 mg/kg, 6 h, dose level Low) was 14.5 s, the Plat (300 mg/kg, 6 h, dose level Low) was 114.4 x10_4/uL and the RBC (300 mg/kg, 6 h, dose level Low) was 645.8 x10_4/ul. For the same compound, the Ret (300 mg/kg, 6 h, dose level Low) was 8%, the WBC (300 mg/kg, 6 h, dose level Low) was 96.1 x10_2/uL and the KIDNEY_L (300 mg/kg, 6 h, dose level Low) was 0.9 g. For the same compound, the KIDNEY_R (300 mg/kg, 6 h, dose level Low) was 0.9 g, the KIDNEY_TOTAL (300 mg/kg, 6 h, dose level Low) was 1.8 g and the LIVER (300 mg/kg, 6 h, dose level Low) was 7.3 g. For the same compound, the A/G [3] was 0.9, the ALP [3] was 1342.6 IU/L and the ALT [3] was 38.4 IU/L. The AST [3] was 73 IU/L, the BUN [3] was 8.8 mg/dL and the CRE [3] was 0.2 mg/dL. The Ca [3] was 10.7 mg/dL, the Cl [3] was 107.4 meq/L and the GLC [3] was 152.8 mg/dL. It also gave an IP [3] of 9.9 mg/dL, a K [3] of 3.9 meq/L and an LDH [3] of 66.6 IU/L. The Na [3] was 144.2 meq/L and the PL [3] was 116.8 mg/dL.

— ChEMBL document CHEMBL3885861, “Open TG-GATES”
